# According to ChEMBL document CHEMBL3885881, “DrugMatrix”:
# Species: Rattus norvegicus
# Assay: DrugMatrix - Regimen: Daily Repeat
# Type: toxicity, organism-based, Sprague-Dawley
# Set-up: regimen Daily Repeat, gender Male, age 6-8 weeks
# Conditions: in vivo, po, route oral GAVAGE, vehicle .5 % CMC; for ALANINE AMINOTRANSFERASE / ALBUMIN / ALKALINE PHOSPHATASE / ASPARTATE AMINOTRANSFERASE / BLOOD UREA NITROGEN / CHLORIDE / CHOLESTEROL / CREATINE PHOSPHOKINASE / CREATININE / GLUCOSE / LACTATE DEHYDROGENASE / LIPASE / PHOSPHORUS / POTASSIUM / SODIUM / TOTAL BILIRUBIN / TOTAL PROTEIN / URIC ACID: tissue Plasma
# [1] = 0.0007 mg/kg, 2184 h, tissue Blood, dose level Low, time 91 day
# [2] = 0.0007 mg/kg, 2184 h, dose level Low, time 91 day
# [3] = 0.0007 mg/kg, […], tissue Blood, dose level Low, time 28 day
# [4] = 0.0007 mg/kg, […], dose level Low, time 28 day
# [5] = 0.001 mg/kg, 72 h, tissue Blood, dose level M1, time 3 day
# [6] = 0.001 mg/kg, 72 h, dose level M1, time 3 day
# [7] = 0.001 mg/kg, 120 h, tissue Blood, dose level M1, time 5 day
# [8] = 0.001 mg/kg, 120 h, dose level M1, time 5 day
# [9] = 0.02 mg/kg, 72 h, tissue Blood, dose level High, time 3 day
# [10] = 0.02 mg/kg, 72 h, dose level High, time 3 day
# [11] = 0.02 mg/kg, 120 h, tissue Blood, dose level High, time 5 day
# [12] = 0.02 mg/kg, 120 h, dose level High, time 5 day
compound,measurement,setting,value
"Clc1cc2c(cc1Cl)Oc1cc(Cl)c(Cl)cc1O2 [2,3,7,8-TETRACHLORODIBENZO-P-DIOXIN]",EOSINOPHIL,[1],1.12%
same,ERYTHROCYTE COUNT,[1],9.38 x10E6/uL
same,HEMATOCRIT,[1],50.34%
same,HEMOGLOBIN,[1],16.79 G/DL
same,LEUKOCYTE COUNT,[1],13.03 x10E3/uL
same,LYMPHOCYTE,[1],77.67%
same,MEAN CORPUSCULAR HEMOGLOBIN,[1],17.96 pg
same,MEAN CORPUSCULAR HEMOGLOBIN CONCENTRATION,[1],33.34 G/DL
same,MEAN CORPUSCULAR VOLUME,[1],53.81 fL
same,MONOCYTE,[1],2.14%
same,NEUTROPHIL,[1],16.55%
same,PLATELET COUNT,[1],1320.7 x10E3/uL
same,ALANINE AMINOTRANSFERASE,[2],26.9 u/L
same,ALBUMIN,[2],3.75 G/DL
same,ALKALINE PHOSPHATASE,[2],85.3 u/L
same,ASPARTATE AMINOTRANSFERASE,[2],64.6 u/L
same,BLOOD UREA NITROGEN,[2],14.9 mg/dL
same,CHLORIDE,[2],103.1 MEQ/L
same,CHOLESTEROL,[2],55.9 mg/dL
same,CREATINE PHOSPHOKINASE,[2],76.1 u/L
same,CREATININE,[2],0.51 mg/dL
same,GLUCOSE,[2],150.6 mg/dL
same,LACTATE DEHYDROGENASE,[2],36.1 u/L
same,LIPASE,[2],15.1 u/L
same,PHOSPHORUS,[2],7.88 mg/dL
same,POTASSIUM,[2],6.11 MEQ/L
same,SODIUM,[2],151 MEQ/L
same,TOTAL BILIRUBIN,[2],0.2 mg/dL
same,TOTAL PROTEIN,[2],7.13 G/DL
same,URIC ACID,[2],0.79 mg/dL
same,ABSOLUTE BASOPHIL,[3],72 cells/µL
same,ABSOLUTE EOSINOPHIL,[3],54 cells/µL
same,ABSOLUTE LYMPHOCYTE,[3],9720 cells/µL
same,ABSOLUTE MONOCYTE,[3],220 cells/µL
same,ABSOLUTE SEGMENTED NEUTROPHIL,[3],1340 cells/µL
same,BASOPHIL,[3],0.62%
same,EOSINOPHIL,[3],0.5%
same,ERYTHROCYTE COUNT,[3],8.2 x10E6/uL
same,HEMATOCRIT,[3],46.2%
same,HEMOGLOBIN,[3],15.3 G/DL
same,LEUKOCYTE COUNT,[3],11.47 x10E3/uL
same,LYMPHOCYTE,[3],84.6%
same,MEAN CORPUSCULAR HEMOGLOBIN,[3],18.64 pg
same,MEAN CORPUSCULAR HEMOGLOBIN CONCENTRATION,[3],33.1 G/DL
same,MEAN CORPUSCULAR VOLUME,[3],56.34 fL
same,MONOCYTE,[3],1.94%
same,NEUTROPHIL,[3],11.78%
same,PLATELET COUNT,[3],1311.4 x10E3/uL
same,ALANINE AMINOTRANSFERASE,[4],24.8 u/L
same,ALBUMIN,[4],3.58 G/DL
same,ALKALINE PHOSPHATASE,[4],148 u/L
same,ASPARTATE AMINOTRANSFERASE,[4],65.4 u/L
same,BLOOD UREA NITROGEN,[4],10.6 mg/dL
same,CHLORIDE,[4],104 MEQ/L
same,CHOLESTEROL,[4],54.8 mg/dL
same,CREATINE PHOSPHOKINASE,[4],83.2 u/L
same,CREATININE,[4],0.44 mg/dL
same,GLUCOSE,[4],147.6 mg/dL
same,LACTATE DEHYDROGENASE,[4],39.8 u/L
same,LIPASE,[4],39.2 u/L
same,PHOSPHORUS,[4],9.54 mg/dL
same,POTASSIUM,[4],5.96 MEQ/L
same,SODIUM,[4],151.6 MEQ/L
same,TOTAL BILIRUBIN,[4],0.2 mg/dL
same,TOTAL PROTEIN,[4],6.34 G/DL
same,URIC ACID,[4],0.22 mg/dL
same,BASOPHIL,[5],0.47%
same,EOSINOPHIL,[5],0.5%
same,ERYTHROCYTE COUNT,[5],7.09 x10E6/uL
same,HEMATOCRIT,[5],44.53%
same,HEMOGLOBIN,[5],14.13 G/DL
same,LEUKOCYTE COUNT,[5],11.43 x10E3/uL
same,LYMPHOCYTE,[5],82.93%
same,MEAN CORPUSCULAR HEMOGLOBIN,[5],20 pg
same,MEAN CORPUSCULAR HEMOGLOBIN CONCENTRATION,[5],31.8 G/DL
same,MEAN CORPUSCULAR VOLUME,[5],62.87 fL
same,MONOCYTE,[5],2.37%
same,NEUTROPHIL,[5],12.8%
same,PLATELET COUNT,[5],1540.67 x10E3/uL
same,ALANINE AMINOTRANSFERASE,[6],38.33 u/L
same,ALBUMIN,[6],3.6 G/DL
same,ALKALINE PHOSPHATASE,[6],343.33 u/L
same,ASPARTATE AMINOTRANSFERASE,[6],60 u/L
same,BLOOD UREA NITROGEN,[6],12 mg/dL
same,CHLORIDE,[6],103 MEQ/L
same,CHOLESTEROL,[6],88.33 mg/dL
same,CREATINE PHOSPHOKINASE,[6],181.33 u/L
same,CREATININE,[6],0.4 mg/dL
same,GLUCOSE,[6],183.67 mg/dL
same,PHOSPHORUS,[6],13.1 mg/dL
same,POTASSIUM,[6],6.53 MEQ/L
same,SODIUM,[6],148.33 MEQ/L
same,TOTAL BILIRUBIN,[6],0.33 mg/dL
same,TOTAL PROTEIN,[6],5.93 G/DL
same,BASOPHIL,[7],0.47%
same,EOSINOPHIL,[7],0.23%
same,ERYTHROCYTE COUNT,[7],7.01 x10E6/uL
same,HEMATOCRIT,[7],45.3%
same,HEMOGLOBIN,[7],14.33 G/DL
same,LEUKOCYTE COUNT,[7],13.09 x10E3/uL
same,LYMPHOCYTE,[7],85.1%
same,MEAN CORPUSCULAR HEMOGLOBIN,[7],20.47 pg
same,MEAN CORPUSCULAR HEMOGLOBIN CONCENTRATION,[7],31.6 G/DL
same,MEAN CORPUSCULAR VOLUME,[7],64.6 fL
same,MONOCYTE,[7],2.03%
same,NEUTROPHIL,[7],11.33%
same,PLATELET COUNT,[7],977.33 x10E3/uL
same,ALANINE AMINOTRANSFERASE,[8],39.33 u/L
same,ALBUMIN,[8],3.63 G/DL
same,ALKALINE PHOSPHATASE,[8],300 u/L
same,ASPARTATE AMINOTRANSFERASE,[8],62.33 u/L
same,BLOOD UREA NITROGEN,[8],12.33 mg/dL
same,CHLORIDE,[8],101.67 MEQ/L
same,CHOLESTEROL,[8],84.33 mg/dL
same,CREATINE PHOSPHOKINASE,[8],173.33 u/L
same,CREATININE,[8],0.43 mg/dL
same,GLUCOSE,[8],173.33 mg/dL
same,PHOSPHORUS,[8],12.97 mg/dL
same,POTASSIUM,[8],6.93 MEQ/L
same,SODIUM,[8],149.33 MEQ/L
same,TOTAL BILIRUBIN,[8],0.5 mg/dL
same,TOTAL PROTEIN,[8],6.07 G/DL
same,BASOPHIL,[9],0.37%
same,EOSINOPHIL,[9],0.47%
same,ERYTHROCYTE COUNT,[9],6.77 x10E6/uL
same,HEMATOCRIT,[9],41.33%
same,HEMOGLOBIN,[9],12.93 G/DL
same,LEUKOCYTE COUNT,[9],11.64 x10E3/uL
same,LYMPHOCYTE,[9],80.13%
same,MEAN CORPUSCULAR HEMOGLOBIN,[9],19.13 pg
same,MEAN CORPUSCULAR HEMOGLOBIN CONCENTRATION,[9],31.33 G/DL
same,MEAN CORPUSCULAR VOLUME,[9],61.07 fL
same,MONOCYTE,[9],2.43%
same,NEUTROPHIL,[9],15.43%
same,PLATELET COUNT,[9],1395 x10E3/uL
same,ALANINE AMINOTRANSFERASE,[10],38.67 u/L
same,ALBUMIN,[10],3.43 G/DL
same,ALKALINE PHOSPHATASE,[10],312.67 u/L
same,ASPARTATE AMINOTRANSFERASE,[10],58.67 u/L
same,BLOOD UREA NITROGEN,[10],10.67 mg/dL
same,CHLORIDE,[10],103.33 MEQ/L
same,CHOLESTEROL,[10],75 mg/dL
same,CREATINE PHOSPHOKINASE,[10],168.33 u/L
same,CREATININE,[10],0.3 mg/dL
same,GLUCOSE,[10],187.33 mg/dL
same,PHOSPHORUS,[10],12.63 mg/dL
same,POTASSIUM,[10],7.03 MEQ/L
same,SODIUM,[10],147 MEQ/L
same,TOTAL BILIRUBIN,[10],0.27 mg/dL
same,TOTAL PROTEIN,[10],5.57 G/DL
same,BASOPHIL,[11],0.5%
same,EOSINOPHIL,[11],0.27%
same,ERYTHROCYTE COUNT,[11],7.05 x10E6/uL
same,HEMATOCRIT,[11],43.57%
same,HEMOGLOBIN,[11],13.87 G/DL
same,LEUKOCYTE COUNT,[11],16.09 x10E3/uL
same,LYMPHOCYTE,[11],87.33%
same,MEAN CORPUSCULAR HEMOGLOBIN,[11],19.67 pg
same,MEAN CORPUSCULAR HEMOGLOBIN CONCENTRATION,[11],31.8 G/DL
same,MEAN CORPUSCULAR VOLUME,[11],61.9 fL
same,MONOCYTE,[11],1.77%
same,NEUTROPHIL,[11],8.93%
same,PLATELET COUNT,[11],1151.33 x10E3/uL
same,ALANINE AMINOTRANSFERASE,[12],46 u/L
same,ALBUMIN,[12],3.5 G/DL
same,ALKALINE PHOSPHATASE,[12],413.67 u/L
same,ASPARTATE AMINOTRANSFERASE,[12],68 u/L
same,BLOOD UREA NITROGEN,[12],12 mg/dL
same,CHLORIDE,[12],102.33 MEQ/L
same,CHOLESTEROL,[12],85.67 mg/dL
same,CREATINE PHOSPHOKINASE,[12],209.67 u/L
same,CREATININE,[12],0.4 mg/dL
same,GLUCOSE,[12],184.33 mg/dL
same,PHOSPHORUS,[12],12.77 mg/dL
same,POTASSIUM,[12],6.53 MEQ/L
same,SODIUM,[12],148.67 MEQ/L
same,TOTAL BILIRUBIN,[12],0.4 mg/dL
same,TOTAL PROTEIN,[12],5.8 G/DL
